Measurements from patent publication US7550509B2, “Carisoprodol articles and methods” (Mutual Pharmaceutical Company, Inc., priority 2006, dated 2009).
Where two headings read alike, the source gives them in different places.

Tests used:
[1] = Biostudy of carisoprodol (SOMA®) pharmacokinetics under non-fasted and fasted conditions, randomized single-dose two-way crossover; type: in vivo, human (healthy adults); settings: for AUC(0-inf) / AUC(0-t) / Tmax / Cmax: plasma; for AUC(0-inf): read-out: AUC0-INF, geometric mean (ln-transformed); for AUC(0-t): read-out: AUC0-t, geometric mean (ln-transformed); for Tmax: read-out: Tmax, least sq. mean (non-transformed); for Cmax: single dose SOMA®, 22 subjects, read-out: Cmax, geometric mean (ln-transformed)
Method: A biostudy was conducted under fasted and non-fasted conditions.
The dosage form is administered with 240 ml of water during the fasting period, and water can be allowed ad libitum after 2 hours.
As used herein, for the purposes of biostudy and the determination of bioequivalence, a non-fasted patient is defined as a patient who fasts for at least 10 hours overnight and then consumes an entire test meal within 30 minutes of first ingestion. The dosage form is administered with 240 mL of water at 30 minutes after first ingestion of the meal. No food is then allowed for at least 4 hours post-dose. Water can be allowed ad libitum after 2 hours. A high fat test meal provides approximately 1000 calories to the patient of which approximately 50% of the caloric content is derived from fat content of the meal. A representative high fat high calorie test meal comprises 2 eggs fried in butter, 2 strips of bacon, 2 slices of toast with butter, 4 ounces of hash brown potatoes, and 8 ounces of whole milk to provide 150 protein calories, 250 carbohydrate calories, and 500 to 600 fat calories.
The study was designed as a randomized, single-dose two-way crossover to compare the pharmacokinetic parameters of SOMA®. Twenty-four healthy adults participated in this comparison study and 22 of the subjects completed the study. Subjects received two separate drug administration treatments in assigned periods, one treatment per period, according to the randomization schedule. Dosing days were separated by a washout period of at least seven days. Blood samples were drawn prior to dosing (pre-dose) and at 0.33, 0.67, 1, 1.5, 2, 2.5, 3, 3.5, 4, 5, 6, 7, 8, 10, 12, 18, and 24 hours post-dose. The samples were then analyzed for carisoprodol and meprobamate.
The following pharmacokinetic parameters may be determined from the plasma concentration data:
The area under the plasma concentration versus time curve [AUCt] may be calculated using the linear trapezoidal rule from the zero time point to the last measured concentration.
The area under the plasma concentration versus time curve from zero to infinity [AUC0-INF] may be calculated by adding Ct/Kelm to AUC where Ct is the last measured concentration and Kelm is the elimination rate constant.
The maximum observed plasma concentration [Cmax] may be obtained by inspection. The Cmax may also be designated as CMAX.
The time to maximum plasma concentration [Tmax] may be obtained by inspection. If the same maximum plasma concentration occurs at more than one time point, the first may be chosen as Tmax.
The terminal elimination rate constant [Kelm] may be obtained from the slope of the line, fitted by linear least squares regression, through the terminal points of the 1n(base e) of the concentration versus time plot for these points.
The half-life [T1/2] may be calculated by the equation T1/2=0.693/Kelm.

[2] = cited from earlier work
[3] = carisoprodol, non-fasted compared to fasted
[4] = carisoprodol, non-fasted vs fasted
[5] = human, oral, carisoprodol in plasma, fasted
[6] = human, oral, carisoprodol in plasma, non-fasted

CCCC(C)(COC(N)=O)COC(=O)NC(C)C (stereo not drawn) [carisoprodol, N-isopropyl-2-methyl-2-propyl-1,3-propanediol dicarbamate]
T½, least sq. mean ([1]; carisoprodol in plasma, fasted): 1.95 h
kelm (elimination rate constant), least sq. mean ([1]; carisoprodol in plasma, fasted): 0.376
kelm (elimination rate constant), least sq. mean ([1]; carisoprodol in plasma, non-fasted): 0.3713
decrease in the geometric mean of Cmax in the presence of food [1, 3]: 16%
effect of food on AUC (AUC0-t and AUC0-INF) (in words) [1, 3]: substantially unchanged
effect of food on Cmax (in words) [1, 3]: decreases
AUC0-INF, % Ratio of geometric means [1, 4]: 96.8%
AUC0-t, % Ratio of geometric means [1, 4]: 96.1%
Cmax, % Ratio of geometric means [1, 4]: 83.8%
Tmax, % Ratio [1, 4]: 137.5%
T½, % Ratio [1, 4]: 100%
kelm, % Ratio [1, 4]: 98.7%
half-life ([1]; human, oral, carisoprodol in plasma, non-fasted, read-out: T½, least sq. mean (converted)): 1.95 h
AUC(0-inf) [1, 5]: 6510 ng·h/mL
AUC(0-t) [1, 5]: 6380 ng·h/mL
Tmax [1, 5]: 1.63 h
Cmax [1, 5]: 2000 ng/mL
Cmax ([1]; human, oral, carisoprodol in plasma, non-fasted (high fat meal)): 1680 ng/mL
AUC(0-inf) [1, 6]: 6310 ng·h/mL
AUC(0-t) [1, 6]: 6140 ng·h/mL
Tmax [1, 6]: 2.24 h
solubility in organic solvents (in words) ([2]; alcohol, chloroform, and acetone): freely soluble
solubility in water ([2]; between 25 to 50° C.): 300 to 1400 µg/mL
solubility in water (in words) ([2]; water): very sparingly soluble
